Data published in patent US9157062B2, “Compositions and methods for promoting the generation of PDX1+ pancreatic cells” (President and Fellows of Harvard College, priority 2008, dated 2015).

Legend:
Type in all cases: cell-based, human
HUES8 cells = test: Differentiation of HUES8 cells to definitive endoderm (Sox17 immunostaining); conditions: 300 nM ILV, 3 days, in the presence or absence of Wnt3a/Activin
Method: ILV was next tested at different steps of the hESC differentiation process (see FIG. 1a). ILV was tested on the differentiation of HUES8 cells to definitive endoderm population, which was assessed by immunostaining with Sox17 antibody.
(§1) Secondly, ILV was examined on the definitive endoderm population containing 70% Sox17^+ cells derived from HUES8 by Wnt3a/Activin treatment (D'Amour et al., 2006). […] Thus, ILV functions by inducing pancreatic specification of hESC-derived definitive endoderm population.

[1] = tested on: hESC-derived population (Pdx1+ cells); test: ILV titration and test on other hESC lines, Pdx1+ cells
Method: To generate a starting population, HUES cells were cultured on MEF feeder cells until 80-90% confluent, then treated with 25 ng/ml Wnt3a (R&D systems)+100 ng/ml Activin A (R&D systems) in advanced RPMI (A-RPMI, Invitrogen) supplemented with 1×L-Glu and 1×PS for 1 day, and then 100 ng/ml Activin A in A-RPMI supplemented with 1×L-Glu, 1×PS and 0.2% FBS (Invitrogen). Two days later, the media was changed to 50 ng/ml FGF10 (R&D systems)+0.25 μM KAAD-CYC (Calbiochem) in A-RPMI supplemented with 1×L-Glu, 1×PS and 2% FBS and maintained for additional 2 days. Cells were then transferred to 50 ng/ml FGF10+0.25 μM KAAD-CYC+2 μM RA (Sigma) in DMEM supplemented with 1×L-Glu, 1×PS, 1×B27 (Invitrogen) and cultured for an additional 4 days. ILV was obtained from Axxora, KAAD-CYC, TPB, PMA, BISI, Gö 6983, U0126 and PD98059 were obtained from Calbiochem and RA were obtained from Sigma.
(§2) Cells were fixed with 10% formalin solution (Sigma) for 20 min at room temperature. Immunostaining was carried out with standard protocols. The following primary antibodies were used: goat anti-Pdx1 (1:500; R&D system); rabbit anti-FOXA2 (1:500; Upstate); rabbit anti-HNF6 (1:200; Santa Cruz Biotech); guinea pig anti-insulin (1:1000; Dako); rabbit anti-c-peptide (1:500; Linco); rabbit anti-amylase (1:200, Sigma); goat anti-HNF1β (1:100, Santa Cruz Biotech); and biotinylated DBA (1:400; Vector Lab). Alexa-488-, Alexa-555, and Alexa-647-conjugated donkey antibodies against mouse, rabbit, guinea pig and goat, and Pacific Blue conjugate-streptavidin (Invitrogen) were used at 1:300 dilution.
Additional experiments were carried out to optimize treatment to obtain more Pdx1^+ cells. […] Secondly, since hESC lines vary in their differentiation potentials (Osafune et al., 2008), ILV was tested on other hESC lines and shown to be effective on HUES 2, 4 and 8. After 4 days treatment with ILV, 26.9±2.8% cells of HUES8-derived population are positively stained by Pdx1 antibody (FIG. 2b), making it the most responsive of the lines tested.

HUES8-derived population [2] = test: In vitro differentiation into pancreatic lineages with bFGF and nicotinamide
Method: For growth factor-induced differentiation, the ILV-treated populations were cultured in DMEM/F12 supplemented with 1×N2 (Invitrogen), 2 mg/ml albumin fraction V (Invitrogen), and 10 ng/ml bFGF (Invitrogen) for the first 4 days. 10 mM nicotinamide (Sigma) was then added and maintained for additional 8 days, changing the media every 3 days.
as §2
In mouse embryonic development, Pdx1^+ pancreatic progenitors contribute to exocrine, endocrine and duct cells (Gu et al., 2003). The developmental potential of Pdx1^+ cells produced by ILV treatment was tested in two assays. First, following published protocols for in vitro differentiation (Jiang et al., 2007), cells were cultured with bFGF and nicotinamide for an additional 12 days. Using this in vitro differentiation assay, four different induced cell types were tested, including HUES8-derived population before ILV treatment (no treatment), the HUES8-derived population after 4 day treatment with DMSO, 300 nM ILV or 300 nM ILV+50 ng/ml FGF10, respectively. After 12 days culture with bFGF and nicotinamide, these four populations of cells were stained with the antibodies against insulin, c-peptide, amylase or DBA (a duct marker).

HUES8-derived population [3] = test: Illumina microarray of markers expressed in non-pancreatic tissues; conditions: 300 nM ILV, 4 days
Method: cRNA samples were prepared with an Illumina TotalPrep RNA Amplification Kit (Ambion). Data was acquired with an Illumina beadstation 500 (Illumina) and analyzed with beadstudio (Illumina).
To further characterize the cells induced by ILV, beyond Pdx1^+ expression, multiple pancreatic lineage markers were examined by immunocytochemistry and qRT-PCR. More than 96% of the Pdx1^+ cells following ILV treatment show significant expression of other pancreatic progenitor markers, including FOXA2 and HNF6 (FIG. 4a). After ILV treatment, Pdx1, HNF6, Ptfla, Sox9, FOXA2 mRNAs level increase (FIG. 4b).

[4] = tested on: HUES8-derived definitive endoderm population; test: Pancreatic specification of the hESC-derived definitive endoderm population (Pdx1+ cells); conditions: definitive endoderm population with 70% Sox17+ cells, 4 days; 300 nM ILV, 50 ng/ml FGF10
Method: FIG. 6c are results showing that ILV directs the specification of definitive endoderm population toward pancreatic lineage (definitive endoderm population was derived from HUES8 after 1 day treatment with 25 ng/ml Wnt3a and 100 ng/ml Activin A for 1 day and 100 ng/ml Activin A for additional 2 days; then, the definitive endoderm population was treated with 300 nM ILV or 300 nM ILV+50 ng/ml FGF10 for additional 4 days);
as §1

[5] = 4 day treatment (300 nM ILV, 50 ng/ml FGF10), then 12 days bFGF and nicotinamide

In the case of (−)-Indolactam V [ILV], the “differentiation to definitive endoderm (Sox17) versus DMSO control” value (HUES8 cells) is reported as “no detectable difference”, the “effect on other hESC lines” value ([1]; HUES 2, 4 and 8) is reported as “effective” and the toxicity ([1]; at 300 nM) is reported as “no detectable toxicity”. The “concentration of highest efficiency” value ([1]; titration of ILV from 20 nM to 5 μM) was 300 nM, the EC50 ([1]; titration of ILV from 20 nM to 5 μM, read-out: EC50 (dose-dependent increase of Pdx1+ cells)) was 142 nM and the “DBA+ duct cells” value (HUES8-derived population [2]; [5]) was 3.6±1.3%. For the same substance, the “amylase+ exocrine cells” value (HUES8-derived population [2]; [5]) was 22.7±5.3%, the “insulin+ cells” value (HUES8-derived population [2]; [5]) was 0.5±0.2% and the “contribution to somatostatin+ cells” value (HUES8-derived population [2]; compared to no treatment or DMSO, immunostaining and qRT-PCR) was “stronger ability to contribute”. For the same substance, the “markers expressed in non-pancreatic tissues or organs (Sox7, Cdx2, Ces2, FABP2, AFP, albumin, BARX1, Troponin T, Sox2)” value (HUES8-derived population [3]) was “either decrease or do not significantly change” and the “Pdx1+ cells” value [4] was 21.5±2.4%.
